The numbers were not newly measured in patent publication US20240327339A1, “COMPOSITIONS AND METHODS FOR TREATING AND PREVENTING VIRAL INFECTIONS” (priority 2021, published 2024), which cites them from elsewhere.

This data set relates to RSV. The conditions noted are these: cited from earlier work.

On to `NC(=O)c1ncn([C@@H]2O[C@H](CO)[C@@H](O)[C@H]2O)n1` [Ribavirin], for which the therapeutic results (inhaled) is “mixed-to-poor results”.

For the compound “palivizumab: a humanized monoclonal antibody targeting the F protein”, where the note is “treated high-risk infants, monthly administration”, the reduction of hospitalizations entry is reported as “approximately 50%”.
